{"source": "patent US8017316B2", "about": "“Methods and compositions for the identification of insect repellent compounds” (Duke University, priority 2007, dated 2011)", "key": {"Or83b mutants": {"test_system": "Or83b mutants", "assay": "Avoidance Evaluation Chamber assay, Or83b mutant flies", "type": "in vivo, Drosophila melanogaster", "conditions": "olfaction-deficient Or83b mutants", "experimental": "(§1) Drosophila Stocks. All fly stocks were maintained on conventional cornmeal-agar-molasses medium under a 12 hour light/12 hour dark cycle at 22° C. Fly strains used were the wild-type Canton-S, the painless mutant pain1 (EP(2)2451), the dTRPA1 mutant (dTRPA1^23-5939/Df(3L)ED4415), the painless− dTRPA1 double mutant pain1; dTRPA1^23-5939, the Or83b mutant W;ΔOr83b (provided by Dr. Hubert Amrein, Duke University, Durham, N.C., United States of America), and the Or83b-painless double mutant pain1; W;ΔOr83b.\n(§2) Avoidance Evaluation Chambers: 3% agar (Fisher Scientific, Pittsburgh, Pa., United States of America) and 3% sucrose (Fisher Scientific) was dissolved in distilled H2O. […]\n(§3) Data Analysis—Avoidance Behavior: Video was downloaded from the digital video camera to a computer using Image Video Mixer (Sony Electronics Inc.) and saved as an MPEG2 file. […] Image stacks for each trial were then analyzed at 10 or 15-minute intervals. […] Care was taken to make sure only flies were visible in each slice since fluorescence in the light box may be of different brightness in each image. […] To quantify this amount of time each space was occupied, the “mean gray value” for each side was calculated using the Analyze Measurements menu of ImageJ. […]"}, "painless mutant flies": {"test_system": "painless mutant flies", "assay": "Avoidance Evaluation Chamber assay, painless mutant flies", "type": "in vivo, Drosophila melanogaster", "experimental": "as §1\n(§4) Avoidance Evaluation Chambers: 3% agar (Fisher Scientific, Pittsburgh, Pa., United States of America) and 3% sucrose (Fisher Scientific) was dissolved in distilled H2O. 0.2% (1:500, or 20 mM) N,N-diethyl-3-methylbenzamide (DEET) or 0.01% (1:10000, or 1 mM) allyl-isothiocyanate (AITC) was added and mixed into the agar/sucrose solution immediately before 22 milliliters of solution was poured into each 60 diameter×15 mm HBD Falcon Standard Tissue Culture Dish. The agar was allowed for harden for approximately 1 hour. Using a template below each dish, the agar was then split along the midline with a clean razor blade and half of each plate was excised and placed onto a clean absorbent towel. In order to assess preference, the empty half of each plate was then replaced with solidified 3% agar and 3% sucrose without the addition of DEET or AITC. Care was taken to not contaminate surfaces of toxin and toxin-free agar during this switch.\n(§5) Olfactory Desensitization: To prevent most odorant detection, the third antennal segment of each antennae was removed from flies under CO2 anesthesia 24 hours before avoidance trials. Removal of both aristae, but not any part of the antennae, was used as a sham to control for non-specific effects that may have resulted from the surgical procedure.\n(§6) Trial Recording: Testing areas (e.g., plates), each containing toxin-containing and toxin-free halves, were placed on a fluorescent-bulb containing light box and arranged so that all fit within the viewfinder of a digital video camera (SONY Handycam; see FIG. 1). Multiple flies to be used on each plate of the trial were sorted under CO2 anesthesia 24 hours before the experiment into glass vials containing fly food. During the experiment, the flies were transferred onto the agar plates by gentle tapping after vials were cooled horizontally on ice. The lids were replaced on the agar plates after fly transfer and animals were allowed a 5-minute acclimation time prior to the start of each trial. The video camera began recording after this acclimation time and ran for 60 minutes. External noise and odors were avoided throughout the trial.\nData Analysis—Avoidance Behavior: Video was downloaded from the digital video camera to a computer using Image Video Mixer (Sony Electronics Inc.) and saved as an MPEG2 file. The movie was then converted to and saved as an image stack at the rate of 1-3 images/second through Image Video Machine (DanDans Digital Media, Boston, Mass., United States of America). Image stacks for each trial were then analyzed at 10 or 15-minute intervals. Each interval was imported and converted to grayscale into ImageJ (Rasband, ImageJ, U.S. National Institutes of Health, Bethesda, Md., United States of America) as a stack and thresholded (Image→Threshold) so that only flies were visible. Care was taken to make sure only flies were visible in each slice since fluorescence in the light box may be of different brightness in each image. The Z-stack Standard Deviation function of ImageJ (Image→Stack→Z-stack→Standard Deviation) was used to visualize the position of all flies throughout each time interval. This inverts and stacks pixels (flies) from each stack image so that the most occupied areas are standardized to be the brightest, and the least occupied areas remain dark. To quantify this amount of time each space was occupied, the “mean gray value” for each side was calculated using the Analyze Measurements menu of ImageJ. […]"}, "wild-type Canton S flies": {"test_system": "wild-type Canton S flies", "assay": "Avoidance Evaluation Chamber assay, wild type flies", "type": "in vivo, Drosophila melanogaster", "conditions": "for avoidance without the third antennal segment: wild type Canton S flies, third antennal segment removed", "experimental": "as §4, §5, §6\nData Analysis—Avoidance Behavior: Video was downloaded from the digital video camera to a computer using Image Video Mixer (Sony Electronics Inc.) and saved as an MPEG2 file. The movie was then converted to and saved as an image stack at the rate of 1-3 images/second through Image Video Machine (DanDans Digital Media, Boston, Mass., United States of America). Image stacks for each trial were then analyzed at 10 or 15-minute intervals. Each interval was imported and converted to grayscale into ImageJ (Rasband, ImageJ, U.S. National Institutes of Health, Bethesda, Md., United States of America) as a stack and thresholded (Image→Threshold) so that only flies were visible. Care was taken to make sure only flies were visible in each slice since fluorescence in the light box may be of different brightness in each image. The Z-stack Standard Deviation function of ImageJ (Image→Stack→Z-stack→Standard Deviation) was used to visualize the position of all flies throughout each time interval. […] To quantify this amount of time each space was occupied, the “mean gray value” for each side was calculated using the Analyze Measurements menu of ImageJ. […]\nAlternatively, the threshold intensity of a single frame in NIH ImageJ was determined automatically; this function highlighted only the flies against an otherwise white background. […]"}, "dTRPA1 mutant flies": {"test_system": "dTRPA1 mutant flies", "assay": "Avoidance Evaluation Chamber assay, dTRPA1 mutant flies", "type": "in vivo, Drosophila melanogaster", "experimental": "as §1, §2, §3"}, "[1]": {"test_system": "non-transfected S2R+ cells", "assay": "Calcium imaging of non-transfected S2R+ cells", "type": "cell-based, Drosophila", "conditions": "0.5% DEET, seven regions of interest", "experimental": "Calcium Imaging for S2R+ cells: the following protocol was followed:\n100 μl of the following Fluo4+Fura-Red solution was added per well:\nAdded 200 μl of fly saline.\nThe ligand solution was added (with or without Ca++ fly saline).\nControl cells were S2R+ cells mock-transfected (no DNA was introduced in the co-precipitation buffers).\nAfter removal of the cell medium from the transfected cells of EXAMPLE 8, 100 μl of FLUO-4+ FURA-Red solution was added to well. This solution included 0.5 μl FLUO-4 stock, 0.5 μl FURA-Red stock, 0.5 μl Pluronic stock and 100 μl Stop solution. The cells were incubate in this solution at room temperature for 45 minutes. The saline was removed and 200 μl of fly saline was added. In Ca++ free conditions, the cells were washed with Ca++ free fly saline supplemented with 5 mM EGTA three times, and then 200 μl of Ca++ free, 5 mM EGTA fly saline was added. The ligand solution was then added with or without Ca++ fly saline.\nThe loaded cells were imaged by confocal microscopy using 488 nm excitation and Long Pass 650 nm and Band Pass 500-525 nm filters."}, "Drosophila painless": {"target": "T1, Drosophila painless (Drosophila melanogaster, UniProt Q9W0Y6)", "T1 construct": "expressed in transfected cells; host or cells: Drosophila S2R+ cells", "T1 sequence (Q9W0Y6 1-913)": "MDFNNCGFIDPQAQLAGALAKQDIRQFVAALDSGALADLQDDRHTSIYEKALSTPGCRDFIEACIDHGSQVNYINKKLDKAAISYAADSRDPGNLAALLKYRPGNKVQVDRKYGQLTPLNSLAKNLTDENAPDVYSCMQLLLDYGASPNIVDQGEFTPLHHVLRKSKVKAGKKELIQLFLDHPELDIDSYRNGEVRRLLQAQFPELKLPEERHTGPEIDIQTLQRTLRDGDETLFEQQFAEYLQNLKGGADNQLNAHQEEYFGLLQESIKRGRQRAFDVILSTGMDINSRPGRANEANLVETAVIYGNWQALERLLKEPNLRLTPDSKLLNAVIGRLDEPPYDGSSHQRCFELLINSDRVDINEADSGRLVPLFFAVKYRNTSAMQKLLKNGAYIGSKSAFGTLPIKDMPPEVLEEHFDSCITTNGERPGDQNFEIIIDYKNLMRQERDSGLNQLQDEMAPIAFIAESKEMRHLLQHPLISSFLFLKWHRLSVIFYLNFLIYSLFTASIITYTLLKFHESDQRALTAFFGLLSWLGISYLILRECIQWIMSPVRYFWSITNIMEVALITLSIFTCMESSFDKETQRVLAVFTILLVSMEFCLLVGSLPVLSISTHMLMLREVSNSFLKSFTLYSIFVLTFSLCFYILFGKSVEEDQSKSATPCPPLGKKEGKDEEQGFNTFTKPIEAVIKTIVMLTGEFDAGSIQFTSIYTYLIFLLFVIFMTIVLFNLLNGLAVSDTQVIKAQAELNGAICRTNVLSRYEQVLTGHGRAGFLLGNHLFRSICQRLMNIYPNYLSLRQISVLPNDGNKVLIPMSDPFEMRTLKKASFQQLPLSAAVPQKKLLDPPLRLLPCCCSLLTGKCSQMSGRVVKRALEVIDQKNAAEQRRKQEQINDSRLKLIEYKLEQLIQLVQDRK", "assay": "Calcium imaging of S2R+ cells transfected with painless", "type": "cell-based", "conditions": "0.5% DEET, six regions of interest", "experimental": "Calcium Phosphate Transfection of Drosophila S2R+ Cells: Drosophila S2R+ cells were maintained at room temperature, in ambient atmosphere, in Schneider's Drosophila medium modified with L-glutamine plus 10% heat-inactivated fetal bovine serum. On the day before DNA transfection, cells were plated at a density of 1.2×10^5 cells per cm^2 growth area. DNA to be transfected was added to 250 mM CaCl2 (a volume equal to 1/20th of the volume of the medium in the dish of cells to be transfected) then this mixture was added dropwise to the same volume of 280 mM NaCl/1.5 mM/Na2HPO4/50 mM HEPES, pH 7.08 (2×HEPES buffered saline) while bubbling air gently through the liquid to mix. Precipitate was allowed to form at room temperature for 40 minutes. Immediately before introducing the precipitate, all growth medium was removed form the cells and fresh growth medium was added. Precipitate was added dropwise to the cells, and the dish was gently swirled. 18-24 hour later all liquid on the dish was withdrawn and was replaced with fresh growth medium. Expression was examined on the third day.\nFor the DEET experiments, 2 ml of culture medium containing 5.75×10^5 cells/ml was placed onto #1.5 25 mm diameter round glass cover slips placed in 6-well multiwell dishes. […]"}, "Drosophila flies": {"test_system": "Drosophila flies", "assay": "Evaluation of activity level (speed of flies)", "type": "in vivo, Drosophila melanogaster", "experimental": "Evaluation of Activity Level—Speed of Flies: Video of trials were downloaded and converted to image stacks and thresholded as described above. The ImageJ plug-in “Multitracker” was used to analyze the paths taken by each fly. The total distance traveled by all flies on each plate was calculated using the Multitracker plug-in, and this distance was divided by the time interval (in minutes) to gauge the average speed of flies on each plate in path lengths/minute."}}, "data": [{"smiles": "C=CCN=C=S", "note": "[AITC, allyl-isothiocyanate]", "values": [{"measurement": "avoidance", "setting": "Or83b mutants", "value": "did not show the same avoidance of AITC"}, {"measurement": "preference in AITC avoidance test, males", "setting": "painless mutant flies; painless-/- males, 1:10,000 dilution", "value": "slight preference for the non-AITC side"}, {"measurement": "AITC detection / avoidance", "setting": "painless mutant flies; painless-/- mutants, 1:10,000 dilution, compared to wild type Canton S", "value": "deficient in AITC detection"}, {"measurement": "avoidance without the third antennal segment", "setting": "wild-type Canton S flies", "value": "able to avoid"}, {"measurement": "avoidance of AITC over time", "setting": "dTRPA1 mutant flies; 1:10,000 AITC", "value": "avoided the toxin for the first 30 minutes, but afterwards showed no preference for either side of the plate"}]}, {"smiles": "CCN(CC)C(=O)c1cccc(C)c1", "note": "[DEET, N,N-diethyl-meta-toluamide]", "values": [{"measurement": "calcium response (FLUO-4 and FURA-RED AM channels)", "setting": "[1]", "value": "strong calcium increases"}, {"measurement": "avoidance", "setting": "Or83b mutants", "value": "able to avoid DEET"}, {"measurement": "avoidance of DEET in first 15 minutes", "setting": "painless mutant flies; P-pain-rescue, pain1 transgenic flies (genomic painless rescue construct), females and males", "value": "some avoidance of DEET"}, {"measurement": "avoidance of DEET in first fifteen minutes after exposure", "setting": "painless mutant flies; pain1/pain2 females and males", "value": "failed to avoid DEET"}, {"measurement": "avoidance of DEET in first fifteen minutes after exposure", "setting": "painless mutant flies; pain1 females and males", "value": "failed to avoid DEET"}, {"measurement": "time to avoid DEET, females relative to males", "setting": "painless mutant flies; painless females vs painless males", "value": "twice as long"}, {"measurement": "avoidance of DEET, females", "setting": "painless mutant flies; painless-/- females", "value": "barely avoiding at the last 65 min time point"}, {"measurement": "time to begin avoiding DEET", "setting": "painless mutant flies; painless-/- males", "value": "about 30 minutes"}, {"measurement": "avoidance of DEET without third antennal segments", "setting": "painless mutant flies; painless-/- males and females with surgically removed third antennal segments", "value": "no avoidance of DEET"}, {"measurement": "avoidance of DEET in first fifteen minutes of the trial", "setting": "painless mutant flies; painless-Gal4 females and males", "value": "failed to avoid DEET"}, {"measurement": "calcium response (FLUO-4 and FURA-RED AM channels)", "setting": "Drosophila painless", "value": "strong calcium increases"}, {"measurement": "activity level (path lengths/min) in the presence of DEET", "setting": "Drosophila flies; Canton S flies without the third antennal segment", "value": "significantly less active"}, {"measurement": "activity level in the presence of DEET", "setting": "Drosophila flies; Or83b flies compared to Canton S, TrpA1 and painless mutant counterparts", "value": "much less active"}, {"measurement": "activity level (path lengths/min) in the presence of DEET", "setting": "Drosophila flies; wild type Canton S flies with intact third-antennal segments", "value": "increased their activity level"}, {"measurement": "time to begin avoiding DEET", "setting": "wild-type Canton S flies; Canton S flies without antennae", "value": "almost immediately"}, {"measurement": "avoidance without the third antennal segment", "setting": "wild-type Canton S flies", "value": "able to avoid"}, {"measurement": "avoidance of DEET in first fifteen minutes after exposure", "setting": "wild-type Canton S flies; wild type Canton-S flies", "value": "clearly avoided DEET"}, {"measurement": "lowest concentration in agar consistently avoided", "setting": "wild-type Canton S flies; wild-type Canton S flies, with and without the presence of sugar", "value": 0.2, "unit": "%"}, {"measurement": "exposure time until consistent avoidance of DEET", "setting": "dTRPA1 mutant flies; 0.2% concentration", "value": "less than 15 minutes"}]}]}
